{"source": "paper PMC9411606", "about": "“Control cell migration by engineering integrin ligand assembly” (Nature Communications, 2022)", "key": {"[1]": {"test_system": "integrin knockdown HuH-7 cells", "test": "Cell adhesion assay, integrin knockdown HuH-7", "assay_type": "cell-based, human", "conditions": "coated with 100 µM FFFIKLLI, n = 30", "procedure": "Integrin β1 shRNA plasmid (#sc-29375-SH), Integrin α3 shRNA plasmid (#sc-35684-SH), Integrin α6 shRNA plasmid (#sc-43129-SH), and control shRNA plasmid-A (#sc-108060) were purchased from Santa Cruz Biotechnology for knockdown of the target integrins. The knockdown efficiency was evaluated by western blotting.\n(§1) The 96-well microplates wells were coated with peptide assemblies (the concentration of FFFIKLLI was kept at 100 μM constantly) for 12 hr at 37 °C before blocked with the Blocking Buffer (2% BSA, 1 mM CaCI2 and 1 mM MnCI2 in PBS) for 1 hr at 37 °C. Cells were collected from culture dishes and suspended in the Blocking Buffer containing anti-laminin-5 (P3H9-2, MAB1947, Chemicon, 5 μg/ml), anti-fibronectin (IST-9, ab6328, Abcam, 20 μg/ml) or IgG isotype control (20 μg/ml, Abcam) before immediately seeded to the coated well (20,000 cells/well) and allowed to incubate at 37 °C for 1 h. The wells were washed for three times with the Blocking Buffer and the phase-contrast images were captured by IncucyteS3 (Essen Bioscience) with a 10× objective."}, "[2]": {"test_system": "cells expressing integrin α3β1", "test": "Cell adhesion assay, cells expressing integrin α3β1", "assay_type": "cell-based, human", "conditions": "coated with 100 µM, 1 h at 37 °C, n = 30", "procedure": "as §1"}, "[3]": {"test_system": "cells lacking integrin α3β1 expression", "test": "Cell adhesion assay, cells lacking integrin α3β1", "assay_type": "cell-based, human", "conditions": "coated with 100 µM, 1 h at 37 °C, n = 30", "procedure": "as §1"}, "[4]": {"test": "TEM imaging / preparation of peptide assemblies (nanofilament size and stability)", "assay_type": "physicochemical", "conditions": "in water", "procedure": "To prepare the stocks of peptide assembled nanofilaments, the required amount of peptide was dissolved in Milli-Q water at 100 mM (for FFF) or 10 mM (for the other peptides, and peptides mixture) and adjust the solution to reach a final pH of 7.0 using 1 N NaOH solution. To stabilize the peptide assemblies, the stock solutions were stored at room temperature for at least 24 h before application. The obtained nanofilaments were very stable and were not affected by simple dilution at neutral pH. Therefore, to prepare the working solution, the desired amount of stock solution was diluted using Milli-Q water or the culture medium. Stand the working solutions for 30 min to evenly distribute nanofilaments in the working solution before applying them to the experiments.\nTo prepare TEM samples, 5 μL peptide solution was dropped on a glow-charged copper grid (400 mesh) coated with carbon film. After removing excess solution, the grid was gently washed three times to remove excess nanofilaments. Then the sample grid was negatively stained using 1.0% (w/v) uranyl acetate and air-dried. TEM images were captured at a high vacuum using a transmission electron microscope (JEM-1230R, JEOL, Japan)."}, "[5]": {"test_system": "Rac1 in HuH-7 cells (RaichuEV-Rac1)", "test": "Rac1 activity by FRET", "assay_type": "cell-based, human", "excerpt": "The mGFP-paxillin expression vector was a gift from A. Kusumi (Okinawa Institute of Science and Technology, Japan). pGFP-FAK and pEGFP-vinculin were gifts from Kenneth Yamada (RRID: Addgene_50513 and Addgene¬_50515)[39], EGFP-talin, mVenus-Integrin-Beta1 and mRuby-Lifeact-7 was a gift from Michael Davidson (RRID: Addgene_54560). pEGFPC1/Gg Vinculin 1-258 (akaVD1) was a gift from S. Craig (RRID: Addgene_46270)[40]. The Rac1 FRET Sensor, pCAGGS-RaichuEV-Rac1was generously provided by K. Aoki (National Institute for Basic Biology, Japan)[41] and the RhoA FRET sensor, DORA-RhoA was generously provided by Yi I. Wu (University of Connecticut Health Center, USA)[42]. The expression vectors for Rac1/Tiam1 activation system (Lyn11-linker-FRB, YFP-FKBP, YFP-FKBP-linker-Tiam1, and pTriEx-PA-Rac1) was generously provided by T. Inoue (Johns Hopkins University, USA)[43]."}}, "note": "“Also recorded” adds a separate entry of the source.", "data": [{"sequence": "FFFIKLLI [assembling ligand: FFF coupled to the N-terminus of IKLLI; self-assembles into nanofilaments]", "values": [{"measurement": "adherence after knockdown of α3 or β1 subunit", "setting": "[1]", "value": "significantly reduced their adherence"}, {"measurement": "adherence to FFFIKLLI-coated dishes", "setting": "[2]", "value": "remained adhered to the substrate"}, {"measurement": "adherence to FFFIKLLI-coated dishes", "setting": "[3]", "value": "washed out"}, {"measurement": "nanofilament width", "setting": "[4]; TEM, FFFIKLLI 100 μM", "value": "~ 100 nm"}, {"measurement": "nanofilament stability", "setting": "[4]; neutral pH, simple dilution", "value": "stable"}, {"measurement": "Rac1 activity, FRET/CFP", "setting": "[5]; 12 hr, n = 50 cells, mean", "value": 1.262}, {"measurement": "Rac1 activity", "setting": "[5]; HuH-7", "value": "great inhibition; also recorded: global inhibition"}]}]}
